Laboratory results from patent US20220162215A1, “COMPOSITIONS AND METHODS OF USING THE SAME FOR TREATMENT OF NEURODEGENERATIVE AND MITOCHONDRIAL DISEASE” (MITOKININ, INC., priority 2019, published 2022).
Where two headings read alike, the source gives them in different places.

What was measured:
HeLa MKYP cells = test: Toxicity / cell death measured by DAPI staining (take-up); type: cell-based
Method: H2O2 treatment was performed as a control for cell death as measured by DAPI staining.
Briefly, HeLa MKYP cells were plated at 10,000 cells/well in 96 well plates along with compounds at various concentrations. Following 16 hrs of incubation, cells were treated with 1 uM FCCP/oligomycin for 6 hours, then analyzed via FACS for the presence of mitochondria in lysosomes (as determined by an emissions spectrum shift from the pH-sensitive mtKeima tag).

[1] = Tissue distribution, mouse; type: in vivo
Method: Referring to Tables 8A-C below, an in vivo summary of EP-0035985 IV at 1 mg/kg (8A), PO 10 mg/kg (8B), and a tissue distribution, mouse (8C) is shown below.

PINK1/parkin pathway = test: Parkin recruitment to mitochondria, live cell imaging; type: cell-based, human; details: PINK1wt vs PINK1ko cells, FIG. 18
Method: When the PINK1/parkin pathway is activated by FCCP, PINK1 is stabilized on the mitochondrial membrane, and its activity leads to the recruitment of parkin to the mitochondria (Narendra et al., PLoS Biol 2010; Narendra et al., J. Cell Biol 2008; Vives-Bauza et al., PNAS 2009). The aim of this assay is to test how MTK compounds affect the speed of parkin recruitment to the mitochondria. Briefly, HeLa-MKYP cells were plated at 7,000 cells/well in 96-well plates along with compounds at various concentrations. Following 16 hours of incubation, cells were treated in phenol-free media with 1 μM FCCP/oligomycin (F/O) along with compounds at various doses for 2-3 hours. Immediately following addition of new media, the cell treatment plate was transferred to a CO2 and temperature-regulated chamber in a high-content imaging microscope [Molecular Devices], to acquire images from live cells at regular intervals during the treatment timecourse. Appropriate controls were included on each plate to obtain a maximum signal from treatment with 2 μM F/O, or a minimum signal from cells treated with no F/O with DMSO for each cell type tested (HeLa-MKYP WT or PINK1^KO). Images were analyzed using MetaExpress 6 software package, and automatically processed after setting thresholds to define overlap between the YFP-parkin signal and red mitochondrial signal based on controls. […]

[2] = Visual inspection of crystallization; type: physicochemical; design: key: 1: yes crystals; 0: no crystals; details: Tables 5A-5D
Method: Briefly, the Hela MKYP (Mito-Keima/YFP-Parkin) cells were seeded at 10K cells/well. EP/MTK compounds were added at seeding (cells were still in suspension). The cells were incubated with the EP/MTK compounds for 16 hours, then 1 μM FCCP/oligomycin was added for 6 hours. Prior to harvesting, cells were scored by eye under 20× magnification for the presence or absence of crystalline or aggregated compound, or round cells.

α-synuclein = test: Preformed α-syn amyloid fibril (PFF) mouse model; type: in vivo; details: oral dosing; for all analyzed species of α-synuclein: 50 mg/kg max
Method: Animals. C57BL6 mice were obtained from the Jackson Laboratories.
Injection material and stereotaxic injections. Purification of recombinant α-synuclein proteins and in vitro fibril assembly was performed as previously described (K. C. Luk et al., Intracerebral inoculation of pathological α-synuclein initiates a rapidly progressive neurodegenerative α-synucleinopathy in mice. J. Exp. Med. 209, 975 (2012)) from full-length wildtype mouse α-synuclein (5 mg/mL). Assembly reactions were agitated in an Eppendorf orbital mixer (1,000 rpm at 37° C.) and α-synuclein pre-formed fibrils (PFFs) harvested after 5 d. Preparations were diluted in sterile PBS and sonicated briefly with a hand-held probe sonicator (Fisher Scientific Model 120) prior to injection. Mice between 2 and 3 months of age were anesthetized with ketamine hydrochloride (100 mg/kg, i.p.) and xylazine (10 mg/kg, i.p.) and stereotaxically injected in one hemisphere of the striatum with PFFs (5 μg). Control animals received sterile PBS. To target the striatum, a single needle insertion (co-ordinates: +1.0 mm relative to Bregma, +2.0 mm from midline) into the right forebrain was used (+2.6 mm beneath the dura). Injections were performed using a motorized injector at a rate of 0.2 μL per min (2.5 μL total per site) with the needle in place for >5 min at each target. Animals were monitored regularly following recovery from surgery. Starting 7 days after surgery, a daily oral dose of EP-0035985 or vehicle control was administered, continuing for the duration of the study. The animals were sacrificed at 30 days post injection by overdose with isofluorane, and their brains removed following transcardial perfusion with PBS. Brains were sectioned into striatum and ventral midbrain sections, and immediately frozen and stored at −80° C. until used.
Biochemical analysis. Dissected brain regions of interest were extracted as in Yun, P. S., et al Nat Med. 2018 July; 24(7):931-938. Briefly, sections were homogenized in brain lysis buffer containing 10 mM Tris-HCl, pH 7.4, 150 mM NaCl, 5 mM EDTA, 0.5% IGEPAL® CA-630 (Nonidet P-40), 1× Halt™ Protease and Phosphatase Inhibitor Cocktail. 0.2 mL of buffer was used per tissue section. Samples were homogenized using a mortar pestle and then 0.3 mL brain lysis buffer was added before clearing at 300×g for 3 minutes at 4° C. Supernatant was then transferred to a new tube and cleared at 22,000×g for 20 min at 4° C. The supernatant should be transferred and the pellet washed with 0.3 mL brain lysis buffer before repeating the clearing step. Subsequent to this the pellet should be further homogenized (sonicating for 20 s at 20% amplitude on ice) in 0.2 mL per sample SDS-Brain lysis buffer containing 10 mM Tris-HCl, pH 7.4, 150 mM NaCl, 5 mM EDTA, 0.5% Nonidet P-40, 1% SDS, 0.5% sodium deoxycholate. Protein concentrations were determined using the BCA assay (Pierce) and samples (10 μg total protein) were separated on SDS-polyacrylamide gels (4-20% gradient) and transferred onto nitrocellulose membranes. Blots were blocked in 5% BSA in TBST and probed using various primary antibodies. Target antigens were detected using an Odyssey FC scanner (LiCor) following incubation with the appropriate infrared secondary antibodies.

FC(F)(F)c1cc2c(NC3CCCc4ccccc43)ncnc2[nH]1 (centres unmarked) [Compound 15]
Toxicity (% positive for DAPI takeup @ 50 μM) (HeLa MKYP cells; Table 2): 2.1% | Max cell death at 25 uM compound, 1 uM FO (HeLa MKYP cells; Table 3 Supplement B, 25 uM compound, 1 uM FO): 10.7% | Cell death at 25 μM (no FO) (HeLa MKYP cells; Table 3 Supplement B, 25 μM, no FO): 2.59% | Toxicity (% positive for DAPI takeup @ 50 μM) (HeLa MKYP cells; Table 4): 2.4% | concentration at 0.5 h ([1]; brain, dose 10 mg/kg, read-out: Brain 0.5 h): 526 ng/g | concentration at 1 h ([1]; brain, dose 10 mg/kg, read-out: Brain 1 h): 737 ng/g | concentration at 2 h ([1]; brain, dose 10 mg/kg, read-out: Brain 2 h): 435 ng/g | concentration at 0.5 h ([1]; brain, dose 50 mg/kg, read-out: Brain 0.5 h): 3340 ng/g | concentration at 1 h ([1]; brain, dose 50 mg/kg, read-out: Brain 1 h): 6370 ng/g | concentration at 2 h ([1]; brain, dose 50 mg/kg, read-out: Brain 2 h): 3980 ng/g | concentration at 0.5 h ([1]; kidney, dose 10 mg/kg, read-out: Kidney 0.5): 1050 ng/g | concentration at 1 h ([1]; kidney, dose 10 mg/kg, read-out: Kidney 1): 1290 ng/g | concentration at 2 h ([1]; kidney, dose 10 mg/kg, read-out: Kidney 2): 893 ng/g | concentration at 0.5 h ([1]; kidney, dose 50 mg/kg, read-out: Kidney 0.5): 6430 ng/g | concentration at 1 h ([1]; kidney, dose 50 mg/kg, read-out: Kidney 1): 11500 ng/g | concentration at 2 h ([1]; kidney, dose 50 mg/kg, read-out: Kidney 2): 7480 ng/g | concentration at 0.5 h ([1]; plasma, dose 10 mg/kg, read-out: Plasma 0.5 h): 372 ng/g | concentration at 1 h ([1]; plasma, dose 10 mg/kg, read-out: Plasma 1 h): 276 ng/g | concentration at 2 h ([1]; plasma, dose 10 mg/kg, read-out: Plasma 2 h): 146 ng/g | concentration at 0.5 h ([1]; plasma, dose 50 mg/kg, read-out: Plasma 0.5 h): 1900 ng/g | concentration at 1 h ([1]; plasma, dose 50 mg/kg, read-out: Plasma 1 h): 2080 ng/g | concentration at 2 h ([1]; plasma, dose 50 mg/kg, read-out: Plasma 2 h): 1420 ng/g | rate of Parkin recruitment (PINK1/parkin pathway): increases the rate of Parkin recruitment in PINK1^wt but not PINK1^ko cells | Visual inspection of crystallization ([2]; 1.6 μM): 0 | Visual inspection of crystallization ([2]; 3.1 μM): 0 | Visual inspection of crystallization ([2]; 6.3 μM): 0 | Visual inspection of crystallization ([2]; 12.5 μM): 0 | Visual inspection of crystallization ([2]; 25.0 μM): 0 | Visual inspection of crystallization ([2]; 50.0 μM): 0 | all analyzed species of α-synuclein (α-synuclein; contralateral striatum, FIG. 30): drives a decrease in all analyzed species of α-synuclein at 50 mg/kg max | all analyzed species of α-synuclein (α-synuclein; ipsilateral striatum, FIG. 29): drives a decrease in all analyzed species of α-synuclein at 50 mg/kg max | c-terminal truncation of α-synuclein (14 kDA) (α-synuclein; ipsilateral striatum, FIG. 26): drives a decrease in c-terminal truncation of α-synuclein (14 kDA) | pS129 monomer of α-synuclein (α-synuclein; ipsilateral striatum, FIG. 27): drives a decrease in pS129 monomer of α-synuclein | total monomer of α-synuclein (α-synuclein; ipsilateral striatum, FIG. 28): drives a decrease in total monomer of α-synuclein | all analyzed species of α-synuclein (α-synuclein; ventral midbrain, FIG. 31): drives a decrease in all analyzed species of α-synuclein at 50 mg/kg max
